Laboratory results reported in the NIST ThermoML archive (doi:10.1016/j.jct.2012.08.018).
± gives the expanded uncertainty stated by the source.

Experiment: molar enthalpy of vaporization or sublimation
Conditions: 298.15 K; Crystal; Static calorimetry

Structure (SMILES) | molar enthalpy [kcal/mol]
CCOC(N)=O [ethyl carbamate] | 18.6 ± 0.335
COC(N)=O [carbamic acid, methyl ester] | 17.6 ± 0.311
